Test system: CD-1 mice
Assay: Expression of hEPO induced by LNPs (mRNA encoding hEPO) administered to mice
Type: in vivo
Details: Table 4b, serum, 6 h after intravenous injection, ELLA Simple Plex Assay
Method: In some embodiments, hEPO concentrations were determined using an […] (ELLA) Simple Plex Assay (ProteinSimple) with a Human Erythroprotein cartridge. Standards for this assay are calibrated according to the 2. IRP WHO preparation. Nanoparticle compositions including mRNA are useful in the evaluation of the efficacy and usefulness of various formulations for the delivery of therapeutic and/or prophylactics. Higher levels of protein expression induced by administration of a composition including an mRNA will be indicative of higher mRNA translation and/or nanoparticle composition mRNA delivery efficiencies. As the non-RNA components are not thought to affect translational machineries themselves, a higher level of protein expression is likely indicative of a higher efficiency of delivery of the therapeutic and/or prophylactic by a given nanoparticle composition relative to other nanoparticle compositions or the absence thereof.
To assess potency of expression of lipids of the disclosure, the protein expression (hEPO) following administration of a nanoparticle comprising a lipid of the disclosure (e.g., a loaded LNP) to mice was measured.
Lipid nanoparticles (LNPs) including DSPC as a phospholipid, cholesterol as a structural lipid, PL-II (e.g., PEG-1) as a PEG lipid, a lipid according to Formula (I-1), (I), (I-A), (I-A1), (I-A2), (I-A3), or (I-A4), and an mRNA encoding hEPO were intravenously administered to CD-1 mice. The concentration of hEPO in serum was tested at 6 h after injection.

| Structure (SMILES) | Avg. hEPO Concentration (mIU/mL) |
| --- | --- |
| CCCCCCCCC(CCCCCCCC)OC(=O)CCCCCCCN(CCCCCCCC(=O)OCCC(CCCC)CCCC)CCCNC(C)=O [Compound 29] | 7.06E+05 mIU/mL |
| CCCCCCCCC(CCCCCCCC)OC(=O)CCCCCCCN(CCCCCCCC(=O)OCCC(CCCC)CCCC)CCCNC(=O)CC [Compound 30] | 4.73E+06 mIU/mL |
| CCCCCCCCC(CCCCCCCC)OC(=O)CCCCCCCN(CCCCCCCC(=O)OCCC(CCCC)CCCC)CCCNC(=O)C(C)C [Compound 31] | 2.31E+06 mIU/mL |
| CCCCCCCCC(CCCCCCCC)OC(=O)CCCCCCCN(CCCCCCCC(=O)OCCC(CCCC)CCCC)CCCNC(=O)C(C)(C)C [Compound 32] | 1.54E+06 mIU/mL |
| CCCCCCCCC(CCCCCCCC)OC(=O)CCCCCCCN(CCCCCCCC(=O)OCCC(CCCC)CCCC)CCCNC(=O)c1ccccc1 [Compound 33] | 1.78E+05 mIU/mL |
| CCCCCCCCC(CCCCCCCC)OC(=O)CCCCCCCN(CCCCCCCC(=O)OCCC(CCCC)CCCC)CCCNC(=O)C(C)O (stereo not shown) [Compound 35] | 1.54E+05 mIU/mL |
| CCCCCCCCC(CCCCCCCC)OC(=O)CCCCCCCN(CCCCCCCC(=O)OCCC(CCCC)CCCC)CCCNC(=O)C1(C)CCC1 [Compound 36] | 1.41E+06 mIU/mL |
| CCCCCCCCC(CCCCCCCC)OC(=O)CCCCCCCN(CCCCCCCC(=O)OCCC(CCCC)CCCC)CCCNC(=O)C1(CC)CC1 [Compound 37] | 1.39E+06 mIU/mL |
| CCCCCCCCC(CCCCCCCC)OC(=O)CCCCCCCN(CCCCCCCC(=O)OCCC(CCCC)CCCC)CCCNC(=O)COC [Compound 38] | 6.13E+05 mIU/mL |
| CCCCCCCCC(CCCCCCCC)OC(=O)CCCCCCCN(CCCCCCCC(=O)OCCC(CCCC)CCCC)CCCNC(=O)C1CC1 [Compound 39] | 2.93E+06 mIU/mL |
| CCCCCCCCC(CCCCCCCC)OC(=O)CCCCCCCN(CCCCCCCC(=O)OCCC(CCCC)CCCC)CCCNC(=O)C1CCOCC1 [Compound 40] | 2.16E+06 mIU/mL |
| CCCCCCCCC(CCCCCCCC)OC(=O)CCCCCCCN(CCCCCCCC(=O)OCCC(CCCC)CCCC)CCCNC(=O)C1CCCCC1 [Compound 41] | 1.31E+06 mIU/mL |
| CCCCCCCCC(CCCCCCCC)OC(=O)CCCCCCCN(CCCCCCCC(=O)OCCC(CCCC)CCCC)CCCNC(=O)C12CCC(CC1)CC2 [Compound 42] | 1.02E+06 mIU/mL |
| CCCCCCCCC(CCCCCCCC)OC(=O)CCCCCCCN(CCCCCCCC(=O)OCCC(CCCC)CCCC)CCCNC(=O)C1CCCO1 (stereo not shown) [Compound 43] | 2.23E+06 mIU/mL |
| CCCCCCCCC(CCCCCCCC)OC(=O)CCCCCCCN(CCCCCCCC(=O)OCCC(CCCC)CCCC)CCCNC(=O)C1CCOC1 (stereo not shown) [Compound 44] | 1.02E+06 mIU/mL |
| CCCCCCCCC(CCCCCCCC)OC(=O)CCCCCCCN(CCCCCCCC(=O)OCCC(CCCC)CCCC)CCCNC(=O)CNC(C)=O [Compound 46] | 3.88E+03 mIU/mL |
| CC#CC(=O)NCCCN(CCCCCCCC(=O)OCCC(CCCC)CCCC)CCCCCCCC(=O)OC(CCCCCCCC)CCCCCCCC [Compound 47] | 1.17E+06 mIU/mL |
| CCCCCCCCC(CCCCCCCC)OC(=O)CCCCCCCN(CCCCCCCC(=O)OCCC(CCCC)CCCC)CCCNC(=O)C1CCN(C(C)=O)C1 (stereo not shown) [Compound 48] | 1.47E+02 mIU/mL |
| CCCCCCCCC(CCCCCCCC)OC(=O)CCCCCCCN(CCCCCCCC(=O)OCCC(CCCC)CCCC)CCCNC(=O)C#CC1CC1 [Compound 50] | 2.60E+05 mIU/mL |
| CCCCCCCCC(CCCCCCCC)OC(=O)CCCCCCCN(CCCCCCCC(=O)OCCC(CCCC)CCCC)CCCNC(=O)C1(C)CCOC1 (stereo not shown) [Compound 55] | 2.61E+06 mIU/mL |
| CCCCCCCCC(CCCCCCCC)OC(=O)CCCCCCCN(CCCCCCCC(=O)OCCC(CCCC)CCCC)CCCNC(=O)C1(C)CCCO1 (stereo not shown) [Compound 56] | 1.17E+04 mIU/mL |
| CCCCCCCCC(CCCCCCCC)OC(=O)CCCCCCCN(CCCCCCCC(=O)OCCC(CCCC)CCCC)CCCNC(=O)C1(C)CCCCC1 [Compound 58] | 4.17E+05 mIU/mL |

Reference: US20240226026A1, “BRANCHED TAIL LIPID COMPOUNDS AND COMPOSITIONS FOR INTRACELLULAR DELIVERY OF THERAPEUTIC AGENTS” (ModernaTX, Inc., priority 2021, published 2024)
